Measurements taken from paper PMC6730544 (ACS infectious diseases, 2019).

How the values were obtained:
Format in all cases: biochemical
[1] = biological target: T1, LpxH (UDP-2,3-diacylglucosamine pyrophosphatase) (Escherichia coli, UniProt P43341); assay: AaLpxE-coupled malachite green assay, residual activity at […]
[2] = biological target: T1, LpxH (UDP-2,3-diacylglucosamine pyrophosphatase); assay: as above; remark: listed apart in the source
[3] = biological target: T1, LpxH (UDP-2,3-diacylglucosamine pyrophosphatase); assay: AaLpxE-coupled malachite green assay, dose-response

T1 sequence (P43341 whole entry): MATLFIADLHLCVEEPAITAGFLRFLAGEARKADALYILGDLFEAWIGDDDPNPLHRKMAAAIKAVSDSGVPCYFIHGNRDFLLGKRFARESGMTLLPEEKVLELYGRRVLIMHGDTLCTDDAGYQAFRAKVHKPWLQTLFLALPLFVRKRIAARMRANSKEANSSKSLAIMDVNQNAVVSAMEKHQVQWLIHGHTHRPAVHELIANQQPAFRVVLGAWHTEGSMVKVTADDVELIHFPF

SMILES	10 μM compound / Percentage Activity [2]	1 μM compound / Percentage Activity [1]	further results
CC(=O)N1CCc2cc(S(=O)(=O)N3CCN(c4cccc(Br)c4)CC3)ccc21 [3a, JH-LPH-06]			activity at 1 µM ([1]; read-out: 1 μM compound / Percentage Activity): 26 ± 8%
CC(=O)N1CCc2cc(S(=O)(=O)N3CCN(c4ccccc4)CC3)ccc21 [3b, JH-LPH-09]	32 ± 9		
CCc1cccc(N2CCN(S(=O)(=O)c3ccc4c(c3)CCN4C(C)=O)CC2)c1 [3c, JH-LPH-24]	21 ± 2		
CC(=O)N1CCc2cc(S(=O)(=O)N3CCN(c4cccc(C(C)C)c4)CC3)ccc21 [3d, JH-LPH-26]	29 ± 3		
CC(=O)N1CCc2cc(S(=O)(=O)N3CCN(c4cccc(-c5ccccc5)c4)CC3)ccc21 [3e, JH-LPH-25]		45 ± 10	
COC(=O)CCC(=O)N1CCc2cc(S(=O)(=O)N3CCN(c4cccc(Br)c4)CC3)ccc21 [22a, JH-LPH-07]		53 ± 11	
O=C(O)CCC(=O)N1CCc2cc(S(=O)(=O)N3CCN(c4cccc(Br)c4)CC3)ccc21 [22b, JH-LPH-08]		52 ± 11	
CC(=O)N1CCc2cc(S(=O)(=O)N3CCN(c4cccc(C(F)(F)F)c4)CC3)ccc21 [AZ1]			IC50 [3]: 147 ± 2 nM
CC(=O)Nc1ccc(S(=O)(=O)N2CCN(c3cccc(C(F)(F)F)c3)CC2)cc1 [compound 11, JH-LPH-15]			activity at 10 µM ([2]; read-out: 10 μM compound / Percentage Activity): 30 ± 11%
